Results on 50 compounds are retold here after ChEMBL document CHEMBL5050843, “Amide substituted thiazoles as protein secretion inhibitors” (2019).

SMILES strings stand for the structures.

Test [1] can be described thus: Inhibition of constitutively active VCAMss-Gluc secretion in human Flp-In-T-REx-293 cells at 2 uM measured by Gaussia luciferase reporter gene method relative to control. In kind it is functional. (In general: A reporter such as luciferase makes a cellular process visible.)
Test [2] can be described thus: Inhibition of constitutively active VCAMss-Gluc secretion in human Flp-In-T-REx-293 cells measured by Gaussia luciferase reporter gene method. In kind it is functional, cell-based.
Test [3] can be described thus: Inhibition of constitutively active PR1ss-Gluc secretion in human Flp-In-T-REx-293 cells measured by Gaussia luciferase reporter gene method. In kind it is functional, cell-based.
Test [4] is described as follows: Inhibition of PR1ss-Gluc secretion in doxycyclin-induced human Flp-In-T-REx-293 cells measured by Gaussia luciferase reporter gene method. In kind it is functional, cell-based.
Test [5] can be described thus: Inhibition of VCAMss-Gluc secretion in doxycyclin-induced human Flp-In-T-REx-293 cells measured by Gaussia luciferase reporter gene method. In kind it is functional, cell-based.
The nature of test [6]: Inhibition of PD1ss-Gluc secretion in doxycyclin-induced human Flp-In-T-REx-293 cells measured by Gaussia luciferase reporter gene method. In kind it is functional, cell-based.
Test [7] in a line: Inhibition of TNF-alpha-FL-Gluc secretion in doxycyclin-induced human Flp-In-T-REx-293 cells measured by Gaussia luciferase reporter gene method. In kind it is functional, cell-based.
The nature of test [8]: Inhibition of VCAM expression in human Flp-In-T-REx-293 cells measured by cellular VCAMss-Gluc assay. In kind it is functional, cell-based.
Test [9] is described as follows: Inhibition of constitutively active VCAMss-Gluc secretion in human Flp-In-T-REx-293 cells at 2.5 uM measured by Gaussia luciferase reporter gene method relative to control. In kind it is functional.
Test [10] in a line: Inhibition of TNF-alpha-FL-Gluc secretion in doxycyclin-induced human Flp-In-T-REx-293 cells at 2.5 uM measured by Gaussia luciferase reporter gene method relative to control. In kind it is functional.
Test [11] in a line: Inhibition of VCAMss-Gluc secretion in doxycyclin-induced human HEK293 cells measured by Gaussia luciferase reporter gene method. In kind it is functional, cell-based.
Test [12] in a line: Inhibition of ROS1 expression in doxycyclin-induced human HEK293-T-REx cells measured by Gaussia luciferase reporter gene method. In kind it is functional, cell-based.
A short description of test [13]: Inhibition of TLR9 expression in doxycyclin-induced human HEK293-T-REx cells measured by Gaussia luciferase reporter gene method. In kind it is functional, cell-based.
Test [14] can be described thus: Inhibition of HER3 expression in doxycyclin-induced human HEK293-T-REx cells measured by Gaussia luciferase reporter gene method. In kind it is functional, cell-based.
Test [15] can be described thus: Inhibition of PD1 expression in doxycyclin-induced human HEK293-T-REx cells measured by Gaussia luciferase reporter gene method. In kind it is functional, cell-based.
Test [16] in a line: Inhibition of VCAM expression in doxycyclin-induced human HEK293-T-REx cells measured by Gaussia luciferase reporter gene method. In kind it is functional, cell-based.

Broadly, the inhibition is the change of the read-out against control, counted positive when it falls. A high value points to strong suppression. Turning to `CC(C)(C)c1csc(NC(=O)c2ccc(C#CCN3CCOCC3)s2)n1`, in test [1], the inhibition at 2 µM was determined as 38%.
The IC50 is the concentration that gives 50% inhibition. A lower IC50 goes with higher potency. Regarding `CC(C)(C)c1csc(NC(=O)c2cc3cc(C#N)ccc3s2)n1`, the IC50 in test [2], in test [3], in test [4], in [5] and in test [6] was above 25 µM in each case.
With `CC(C)(C)c1csc(NC(=O)c2cc3c(s2)CCCC3)n1`, the half-maximal inhibitory concentration (IC50) in test [2] was 5.35 µM; in test [3], above 25 µM; in [4], above 25 µM; in test [6] it was 4.44 µM; in test [7], 22.7 µM.
`CC(C)(C)c1csc(NC(=O)c2ccc(C#CCCCCCCCCO)s2)n1`: the inhibition at 2 µM in test [1] is 52%.
`CC(C)(C)c1csc(NC(=O)c2ccc(-c3cccnc3)s2)n1` gave an inhibition at 2 µM in [1] of 19%.
Still for that read-out and setting: to `O=C(Nc1nc(-c2ccc(C(F)(F)F)cc2)cs1)c1cc2c(s1)CCCC2` belongs 3%.
With `CC(C)(C)c1csc(NC(=O)C(Cc2ccccc2)c2cn(Cc3ccccc3)c3ccc(Cl)cc23)n1` (stereo not drawn), the IC50 in test [8], in test [4], in test [6] and in test [7] was above 25 µM each time.
Consider `CN(C)CC#Cc1ccc(C(=O)Nc2nc(C(C)(C)C)cs2)s1`, for which the inhibition at 2 µM in test [1] worked out at 76%.
Take `CCC(C)(C)c1csc(NC(=O)Cc2csc3ccc(Cl)cc23)n1`: the IC50 is 1.23 µM in [2]; above 25 µM in [3]; above 25 µM in [4]; 0.826 µM in test [5]; 2.75 µM in test [6].
As for `CC(C)(C)c1csc(NC(=O)Cc2csc3ccc(Cl)cc23)n1`, the IC50 is 0.915 µM in [2]; above 25 µM in test [3]; above 25 µM in [4]; 1.11 µM in test [5]; 5.37 µM in [6]; above 25 µM in [7].
Compound `CC(C)(C)c1csc(NC(=O)c2ccc(C#CCO)s2)n1` showed an inhibition at 2 µM in test [1] of 80%.
On to `Cc1ccc2c(CC(=O)Nc3nc(C(C)(C)C)cs3)csc2c1`, for which the half-maximal inhibitory concentration (IC50) in test [2] was 6.82 µM; in [3], above 25 µM; in [4] it was above 25 µM; in [5], 5.9 µM; in [6], 22.2 µM.
Turning to `CC(C)(C)c1csc(NC(=O)Cc2cn(Cc3ccc(F)cc3)c3ccccc23)n1`, the concentration for half-maximal inhibition (IC50) in [2] was 2.11 µM; in test [3] it was above 25 µM; in test [4], above 25 µM; in test [5], 1.14 µM; in [6] it was 12.9 µM.
Take `Cc1cccc2c(CC(=O)Nc3nc(C(C)(C)C)cs3)csc12`: the IC50 in test [2] is 2.42 µM; in test [3], above 25 µM; in test [4], above 25 µM; in test [5], 3.56 µM; in test [6], 20.4 µM.
Consider `O=C(Nc1nc(C2CC3CCC(C3)C2)cs1)c1cc2c(s1)CCCC2` (stereo not drawn), for which, in test [1], the inhibition at 2 µM worked out at 55%.
For the compound `CC(C)(C)c1csc(NC(=O)c2cccs2)n1`, the inhibition at 2.5 µM was 23% in test [9] and 24% in test [10].
For `COc1ccc2[nH]c(-c3ccc(C(=O)Nc4nc(C(C)(C)C)cs4)s3)cc2c1` the same measures were 42% and 27%.
With `CC(C)(C)C(=O)Nc1nc(C(C)(C)C)cs1`, the inhibition at 2 µM in test [1] worked out at 0%.
Same read-out and setting: to `CC(C)(C)c1csc(NC(=O)c2ccc(C#C[Si](C)(C)C)s2)n1` belongs 54%.
`CC(C)(C)c1csc(NC(=O)Cc2cn(Cc3ccccc3)c3ccc(Cl)cc23)n1`: the half-maximal inhibitory concentration (IC50) in test [2] is 0.506 µM; in [3], above 25 µM; in test [4] it was above 25 µM; in [5], 0.587 µM; in [6] it was 4.25 µM; in test [7], 13.1 µM.
On to `CC(C)(C)c1csc(NC(=O)C2CCCCC2)n1`, for which, in test [1], testing at 2 µM gave an inhibition of 30%. The IC50 is 9.8 µM in [2] and above 25 µM in test [3].
As for `CC(C)(C)c1csc(NC(=O)Cc2cn(Cc3ccccc3Cl)c3ccc(Cl)cc23)n1`, the IC50 in test [2] is 0.147 µM; in test [3], above 25 µM; in test [4], above 25 µM; in test [6], 1.15 µM; in test [7] it was above 25 µM.
Consider `CC(C)(C)c1csc(NC(=O)c2ccc3c(c2)CCCC3)n1`, for which, in test [1], the inhibition at 2 µM turned out to be 20%. Moreover, the IC50 in test [2] was 10.9 µM; in [3], above 25 µM.
In test [11], `O=C(NC1NC(c2ccccc2)=NS1)N1CCOc2ccc(Cl)cc2C1` (stereo not drawn) returned a 50% inhibitory concentration (IC50) of 22.1 µM.
As for `CC(C)(C)c1csc(NC(=O)N2CCOc3ccccc3C2)n1`, testing at 2 µM in [1] gave an inhibition of 24%. Besides, the IC50 in [2] is 10.1 µM; in [3], above 25 µM.
On to `Cc1cc(C(=O)Nc2nc(C(C)(C)C)cs2)cs1`, for which the IC50 in [11] is 3.3 µM; in test [2], 12.5 µM; in test [3], above 25 µM; in test [4], above 25 µM; in test [5] it was 19.1 µM; in [6] it was 9.84 µM. The concentration for half-maximal inhibition (IC50) in test [7] was above 25 µM.
For the compound `CC(C)(C)c1csc(NC(=O)c2ccc(-c3cc(Cl)cc(Cl)c3)s2)n1`, the inhibition at 2 µM in [1] worked out at 35%.
Same read-out and setting: under `CC(C)(C)c1csc(NC(=O)c2ccc(CCCO)s2)n1` stands 31%.
As for `Cc1ccc2scc(CC(=O)Nc3nc(C(C)(C)C)cs3)c2c1`, the IC50 was 1.63 µM in [2]; above 25 µM in test [3]; above 25 µM in test [4]; 2.24 µM in test [5]; 8.27 µM in test [6].
In turn, `CC(C)(C)c1csc(NC(=O)c2ccc(-c3cccc([N+](=O)[O-])c3)s2)n1` yielded an inhibition at 2 µM in test [1] of 59%.
As to `CCCC(C)(C)c1csc(NC(=O)Cc2csc3ccc(Cl)cc23)n1`, the IC50 in [2] is 1 µM; in [3], above 25 µM; in [4] it was above 25 µM; in test [5] it was 0.744 µM; in test [6] it was 1.75 µM.
Consider `CC(C)(C)c1csc(NC(=O)c2cc3cc(-c4ccccc4Cl)ccc3s2)n1`, for which the half-maximal inhibitory concentration (IC50) in test [2] is 4.11 µM; in test [3] it was above 25 µM; in [4], above 25 µM; in test [5] it was 9.53 µM; in [6] it was 3.87 µM.
For the compound `CC(O)C#Cc1ccc(C(=O)Nc2nc(C(C)(C)C)cs2)s1` (stereo not drawn), in test [1], at 2 µM the inhibition was 24%.
Regarding `COc1ccc2c(c1)cc(-c1ccc(C(=O)Nc3nc(C(C)(C)C)cs3)s1)n2C(=O)OC(C)(C)C`, the inhibition at 2.5 µM in test [9] worked out at 56%; in test [10], 0%.
`CC(O)CCc1ccc(C(=O)Nc2nc(C(C)(C)C)cs2)s1` (stereo not drawn) had an inhibition at 2 µM in test [1] of 30%.
On the same count and under the same terms, under `CC(C)(C)c1csc(NC(=O)N2CCCOCC2)n1` stands 0%.
Consider `CCC(C)(C)c1csc(NC(=O)Cc2cn(Cc3ccccc3)c3ccc(Cl)cc23)n1`, for which the IC50 in [2] was 0.109 µM; in [3] it was above 25 µM; in [4], above 25 µM; in [6], 2.2 µM; in [7], 9.8 µM.
The compound `Cn1c(C(C)(C)C)cs/c1=N\C(=O)c1cc2c(s1)CCCC2` registered an inhibition at 2 µM in test [1] of 63%.
Regarding `CC(C)(C)c1csc(NC(=O)c2cc3c(s2)CCN(Cc2ccccc2)C3)n1`, the values for the inhibition at 2.5 µM in test [9] and in [10] were 33% and 22%, respectively.
On to `CN(C(=O)c1cc2c(s1)CCCC2)c1nc(C(C)(C)C)cs1`, for which 2 µM produced 19% inhibition in test [1].
Regarding `CC(C)(C)c1csc(NC(=O)Cc2csc3ccc(C#N)cc23)n1`, the half-inhibitory concentration (IC50) was 1.25 µM in [2]; above 25 µM in test [3]; above 25 µM in test [4]; 1.56 µM in test [5]; 7.82 µM in [6].
`CC(C)(C)c1csc(NC(=O)Nc2nc(C(C)(C)C)cs2)n1` displayed an inhibition at 2 µM in test [1] of 19%.
On the same count and under the same terms, under `Cc1ccc(S(=O)(=O)Nc2nc(C(C)(C)C)cs2)cc1` stands 0%.
Regarding `CC(C)(C)c1csc(NC(=O)c2ccc(Cl)cc2)n1`, the inhibition at 2.5 µM is 66% in test [9] and 0% in test [10]. In addition, the half-maximal inhibitory concentration (IC50) in [3] was above 25 µM.
In the case of `CC(C)(C)c1csc(NC(=O)c2cc3c(s2)CCNC3)n1`, the inhibition at 2.5 µM in [9] and in [10] was 0% throughout.
The compound `Cc1ccc(C(=O)Nc2nc(C(C)(C)C)cs2)cc1` yielded an inhibition at 2 µM in test [1] of 9%.
Same read-out and setting: under `CC(C)(C)c1csc(NC(=O)c2ccc(C#CCCCO)s2)n1` stands 53%.
Regarding `CCOC(C)(C)c1csc(NC(=O)Cc2cn(Cc3ccccc3Cl)c3ccc(Cl)cc23)n1`, the half-inhibitory concentration (IC50) in test [12] was below 5 µM; in [13], below 5 µM; in test [8], 1 µM; in test [14] it was below 5 µM; in test [4], above 25 µM; in test [15] it was below 5 µM. Besides, the concentration for half-maximal inhibition (IC50) is below 5 µM in [16], 0.968 µM in [6] and 24.4 µM in test [7].
On to `C#Cc1ccc(C(=O)Nc2nc(C(C)(C)C)cs2)s1`, for which, in test [1], at 2 µM the inhibition was 66%.
`CC(C)(C)c1csc(NC(=O)c2ccc(C#CCCCN3CCOCC3)s2)n1` showed an inhibition at 2 µM in test [1] of 45%.
